Measurements from US20250376445A1, “COMPOUNDS AND METHODS FOR YAP/TEAD MODULATION AND INDICATIONS THEREFOR” (OPNA BIO SA, priority 2023, published 2025).

These molecules were tested on TEAD-dependent transcription (assay: TEAD-dependent transcription cell-based reporter assay (MSTO-211H+12XGTIIC luciferase)). Conditions: Homo sapiens; MSTO-211H+12XGTIIC reporter cells, 24 hours compound incubation, luminescence normalized to viability; read-out: MSTO-211H GMean IC50 (uM) Cell Assay Reporter Cell Variant: TEAD.
Parameters: species or system human
Description: The human mesothelioma cell line MSTO-211H was stably transfected with a pGL4.21 plasmid containing a synthetic promoter with 12 copies of the GTIIC TEAD response element that drives the expression of a luciferase reporter gene^1 using Lipofectamine transfection reagent (Thermo Fisher). Transfected cells were selected using puromycin and single cell clones expressing this construct (referred to as MSTO-211H+12XGTIIC) were generated by limiting dilution. MSTO-211H cells was characterized by genetic alterations in key components of the Hippo pathway^2, resulting in up-regulation of YAP/TEAD-mediated transcription. […] To evaluate TEAD inhibitors, the MSTO-211H+12XGTIIC cell line was seeded in a 96-well plate in 50 μL of culture media at 1×10^4 cells per well and incubated at 37° C. overnight. Serial dilutions of compounds (in total volume of 50 μL of culture media) were added to the cells and incubated at 37° C. for 24 hours. Each plate included cells treated with DMSO as high controls and cells treated with 20 μM of the reference compound K-975 (a known TEAD inhibitor)^3 as low controls. Cell viability was assayed by the addition of 25 μL of CellTiter-Fluor reagent (Promega) followed by a 30-minute incubation at 37° C. and quantification of the fluorescence signal (Ex400/Em505). Subsequently, luciferase expression was assayed by the addition of 25 μL of ONE-Glo reagent (Promega) followed by a 10-minute incubation at room temperature and quantification of the luminescence signal. The luminescence signal was normalized to the fluorescence signal to correct for any loss in cell viability over the 24-hour compound incubation period. The percentage of inhibition of normalized luminescence signal, indicative of compound-mediated inhibition of TEAD-dependent transcription, at individual compound concentrations relative to high and low controls was calculated. The data were analyzed by using nonlinear regression to generate IC50 values for individual compounds.
Work on `O=C(CCS(=O)(=O)C(F)(F)F)N1CCc2c(Cc3ccc(C(F)(F)F)cc3)cccc2C1` [O-0001, 1-(5-(4-(trifluoromethyl)benzyl)-3,4-dihydroisoquinolin-2(1H)-yl)-3-((trifluoromethyl)sulfonyl)propan-1-one] yielded an IC50 of 0.001 to 10 µM.
For `O=C(CCS(=O)(=O)C(F)(F)F)N1CCc2c(cccc2C(F)c2ccc(C(F)(F)F)cc2)C1` (stereo not drawn) [O-0002, 1-(5-(fluoro(4-(trifluoromethyl)phenyl)methyl)-3,4-dihydroisoquinolin-2(1H)-yl)-3-((trifluoromethyl)sulfonyl)propan-1-one], the IC50 was 0.001 to 10 µM.
Work on `O=C(CCS(=O)(=O)C(F)(F)F)N1CCc2c(cccc2C(O)c2ccc(C(F)(F)F)cc2)C1` (stereo not drawn) [O-0004, 1-(5-(hydroxy(4-(trifluoromethyl)phenyl)methyl)-3,4-dihydroisoquinolin-2(1H)-yl)-3-((trifluoromethyl)sulfonyl)propan-1-one] yielded an IC50 of 0.001 to 10 µM.
With `O=C(c1ccc(C(F)(F)F)cc1)c1cccc2c1CCN(C(=O)CCS(=O)(=O)C(F)(F)F)C2` [O-0005, 1-(5-(4-(trifluoromethyl)benzoyl)-3,4-dihydroisoquinolin-2(1H)-yl)-3-((trifluoromethyl)sulfonyl)propan-1-one] the IC50 was 0.001 to 10 µM.
Work on `O=C(CCS(=O)(=O)C(F)(F)F)N1CCc2c(cccc2C(F)c2ccc(C(F)(F)F)nc2)C1` (stereo not drawn) [O-0008, 1-(5-(fluoro(6-(trifluoromethyl)pyridin-3-yl)methyl)-3,4-dihydroisoquinolin-2(1H)-yl)-3-((trifluoromethyl)sulfonyl)propan-1-one] yielded an IC50 of 0.001 to 10 µM.
`O=C(CCS(=O)(=O)C(F)(F)F)N1CCc2c(cccc2C(F)(F)c2ccc(C(F)(F)F)nc2)C1` [O-0009, 1-(5-(difluoro(6-(trifluoromethyl)pyridin-3-yl)methyl)-3,4-dihydroisoquinolin-2(1H)-yl)-3-((trifluoromethyl)sulfonyl)propan-1-one] gave an IC50 of 0.001 to 10 µM.
In the case of `CS(=O)(=O)c1nccc(C(=O)N2CCc3c(cccc3C(=O)c3ccc(C(F)(F)F)cc3)C2)n1` [O-0033, (2-(methylsulfonyl)pyrimidin-4-yl)(5-(4-(trifluoromethyl)benzoyl)-3,4-dihydroisoquinolin-2(1H)-yl)methanone], the IC50 is reported as 0.001 to 10 µM.
In the case of `O=C(c1ccc(C(F)(F)F)cc1)c1cccc2c1CCN(C(=O)c1c[nH]c(C(F)(F)F)n1)C2` [O-0037, (2-(trifluoromethyl)-1H-imidazol-4-yl)(5-(4-(trifluoromethyl)benzoyl)-3,4-dihydroisoquinolin-2(1H)-yl)methanone], the IC50 is reported as 0.001 to 10 µM.
For `CS(=O)(=O)c1nc(C(=O)N2CCc3c(cccc3C(=O)c3ccc(C(F)(F)F)cc3)C2)c[nH]1` [O-0038, (2-(methylsulfonyl)-1H-imidazol-4-yl)(5-(4-(trifluoromethyl)benzoyl)-3,4-dihydroisoquinolin-2(1H)-yl)methanone], the IC50 was 0.001 to 10 µM.
`O=C(c1ccc(C(F)(F)F)cc1)c1cccc2c1CCN(C(=O)c1cccc3[nH]c(C(F)(F)F)nc13)C2` [O-0046, (2-(trifluoromethyl)-1H-benzo[d]imidazol-4-yl)(5-(4-(trifluoromethyl)benzoyl)-3,4-dihydroisoquinolin-2(1H)-yl)methanone] gave an IC50 of 0.001 to 10 µM.
`O=C(c1ccc(C(F)(F)F)cc1)c1cccc2c1CCN(C(=O)Cc1c[nH]cn1)C2` [O-0047, 2-(1H-imidazol-4-yl)-1-(5-(4-(trifluoromethyl)benzoyl)-3,4-dihydroisoquinolin-2(1H)-yl)ethan-1-one] gave an IC50 of 0.001 to 10 µM.
`O=C(c1ccc(C(F)(F)F)cc1)c1cccc2c1CCN(C(=O)CCc1cnc[nH]1)C2` [O-0048, 3-(1H-imidazol-5-yl)-1-(5-(4-(trifluoromethyl)benzoyl)-3,4-dihydroisoquinolin-2(1H)-yl)propan-1-one] gave an IC50 of 0.001 to 10 µM.
`CS(=O)(=O)c1nc(C(=O)N2CCc3c(cccc3C(F)c3ccc(C(F)(F)F)cc3)C2)c[nH]1` (stereo not drawn) [O-0054, (5-(fluoro(4-(trifluoromethyl)phenyl)methyl)-3,4-dihydroisoquinolin-2(1H)-yl)(2-(methylsulfonyl)-1H-imidazol-4-yl)methanone] gave an IC50 of 0.001 to 10 µM.
With `O=C(c1c[nH]c(C(F)(F)F)n1)N1CCc2c(cccc2C(F)c2ccc(C(F)(F)F)cc2)C1` (stereo not drawn) [O-0055, (5-(fluoro(4-(trifluoromethyl)phenyl)methyl)-3,4-dihydroisoquinolin-2(1H)-yl)(2-(trifluoromethyl)-1H-imidazol-4-yl)methanone] the IC50 was 0.001 to 10 µM.
`O=C(Cc1cscn1)N1CCc2c(cccc2C(F)c2ccc(C(F)(F)F)cc2)C1` (stereo not drawn) [O-0056, 1-(5-(fluoro(4-(trifluoromethyl)phenyl)methyl)-3,4-dihydroisoquinolin-2(1H)-yl)-2-(thiazol-4-yl)ethan-1-one] gave an IC50 of 0.001 to 10 µM.
`CCOC(c1ccc(C(F)(F)F)cc1)c1cccc2c1CCN(C(=O)CCS(C)(=O)=O)C2` (stereo not drawn) [O-0057, 1-(5-(ethoxy(4-(trifluoromethyl)phenyl)methyl)-3,4-dihydroisoquinolin-2(1H)-yl)-3-(methylsulfonyl)propan-1-one] showed an IC50 of 0.001 to 10 µM.
Molecule `CS(=O)(=O)c1nccc(C(=O)N2CCc3ccc(C(=O)c4ccc(C(F)(F)F)cc4)cc3C2)n1` [O-0058, (2-(methylsulfonyl)pyrimidin-4-yl)(7-(4-(trifluoromethyl)benzoyl)-3,4-dihydroisoquinolin-2(1H)-yl)methanone] has an IC50 of 0.001 to 10 µM.
`O=C(CCc1cnc[nH]1)N1CCc2ccc(C(F)(F)c3ccc(C(F)(F)F)nc3)cc2C1` [O-0059, 1-(7-(difluoro(6-(trifluoromethyl)pyridin-3-yl)methyl)-3,4-dihydroisoquinolin-2(1H)-yl)-3-(1H-imidazol-5-yl)propan-1-one] gave an IC50 of 0.001 to 10 µM.
`O=C(Cc1cnc[nH]1)N1CCc2ccc(C(F)(F)c3ccc(C(F)(F)F)nc3)cc2C1` [O-0060, 1-(7-(difluoro(6-(trifluoromethyl)pyridin-3-yl)methyl)-3,4-dihydroisoquinolin-2(1H)-yl)-2-(1H-imidazol-5-yl)ethan-1-one] was tested, and the IC50 was 0.001 to 10 µM.
Work on `CS(=O)(=O)c1nc(C(=O)N2CCc3ccc(C(F)(F)c4ccc(C(F)(F)F)nc4)cc3C2)c[nH]1` [O-0061, (7-(difluoro(6-(trifluoromethyl)pyridin-3-yl)methyl)-3,4-dihydroisoquinolin-2(1H)-yl)(2-(methylsulfonyl)-1H-imidazol-4-yl)methanone] yielded an IC50 of 0.001 to 10 µM.
With `O=C(CCS(=O)(=O)C(F)(F)F)N1CCc2ccc(C(F)(F)c3ccc(C(F)(F)F)nc3)cc2C1` [O-0062, 1-(7-(difluoro(6-(trifluoromethyl)pyridin-3-yl)methyl)-3,4-dihydroisoquinolin-2(1H)-yl)-3-((trifluoromethyl)sulfonyl)propan-1-one] the IC50 was 0.001 to 10 µM.
Work on `O=C(CCS(=O)(=O)C(F)(F)F)N1CCc2ccc(C(F)c3ccc(C(F)(F)F)nc3)cc2C1` (stereo not drawn) [O-0063, 1-(7-(fluoro(6-(trifluoromethyl)pyridin-3-yl)methyl)-3,4-dihydroisoquinolin-2(1H)-yl)-3-((trifluoromethyl)sulfonyl)propan-1-one] yielded an IC50 of 0.001 to 10 µM.
`CS(=O)(=O)c1nc(C(=O)N2CCc3ccc(C(=O)c4ccc(C(F)(F)F)cc4)cc3C2)c[nH]1` [O-0064, (2-(methylsulfonyl)-1H-imidazol-4-yl)(7-(4-(trifluoromethyl)benzoyl)-3,4-dihydroisoquinolin-2(1H)-yl)methanone] was tested, and the IC50 was 0.001 to 10 µM.
`O=C(c1ccc(C(F)(F)F)cc1)c1ccc2c(c1)CN(C(=O)CCS(=O)(=O)C(F)(F)F)CC2` [O-0065, 1-(7-(4-(trifluoromethyl)benzoyl)-3,4-dihydroisoquinolin-2(1H)-yl)-3-((trifluoromethyl)sulfonyl)propan-1-one] showed an IC50 of 0.001 to 10 µM.
